Assay results: US8536202B2, “Triazole-substituted anthranilamides as pesticides” (Bayer Cropscience AG, priority 2010, dated 2013)
Where two headings read alike, the source gives them in different places.

What was measured:
[1] = test system: larvae of the mustard beetle (Phaedon cochleariae); experiment: Phaedon test (PHAECO spray treatment); type: in vivo; conditions: 168 h, 100 g/ha, after 7 days, read-out: activity in %
Procedure, shortened: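 Compound dissolved in acetone/dimethylformamide with alkylaryl polyglycol ether emulsifier, then diluted with emulsifier-containing water to test concentration for spray treatment of Phaedon cochleariae larvae. Activity scored after 7 days as % larvae killed (100% = all dead, 0% = none).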

[2] = test system: caterpillars of the armyworm (Spodoptera frugiperda); experiment: Spodoptera frugiperda test (SPODFR spray treatment); type: in vivo; conditions: 168 h, after 7 days; for pest or weed control at 100 g/ha: read-out: activity in %
Procedure, shortened: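 Maize leaf discs sprayed with compound diluted in emulsifier-containing water (acetone/DMF solvent, alkylaryl polyglycol ether emulsifier), dried, then infested with armyworm caterpillars. Kill scored after 7 days as % mortality, 100% = all caterpillars dead, 0% = none.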

[3] = log P determination by HPLC on reversed-phase columns (EEC Directive 79/831 Annex V.A8); type: physicochemical; conditions: pH 2.7
Procedure, shortened: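 log P from reversed-phase LC-MS retention at pH 2.7, 0.1% formic acid water/acetonitrile gradient 10–95% acetonitrile. Calibrated against C3–C16 unbranched alkan-2-ones, interpolating linearly between adjacent alkanones.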

[4] = reversed-phase C18 HPLC column, HPLC on reversed-phase columns (C 18), EEC Directive 79/831 Annex V.A8, read-out: logP

Structure (SMILES) | pest or weed control at 100 g/ha [1] [%] | pest or weed control at 100 g/ha [2] [%] | chromatographic logP [3, 4] | chromatographic logP [3] | pest or weed control at 20 g/ha [2] [%]
Cc1cc(C#N)cc(C(=O)NC(C)(C)C)c1NC(=O)c1cc(Cn2ncc(C(F)(C(F)(F)F)C(F)(F)F)n2)nn1-c1ncccc1Cl [Example 252] | 100 | 100 | 4.21 | – | –
Cc1cc(C#N)cc(C(=O)NCC2CC2)c1NC(=O)c1cc(Cn2ncc(C(F)(C(F)(F)F)C(F)(F)F)n2)nn1-c1ncccc1Cl [Example 253] | 100 | 100 | 3.95 | – | –
Cc1cc(C#N)cc(C(=O)NC2CC2)c1NC(=O)c1cc(Cn2ncc(C(F)(C(F)(F)F)C(F)(F)F)n2)nn1-c1ncccc1Cl [Example 256] | 100 | 100 | 3.63 | – | –
CNC(=O)c1cc(Cl)cc(C)c1NC(=O)c1cc(Cn2ncc(C(F)(C(F)(F)F)C(F)(F)F)n2)nn1-c1ncccc1Cl [Example 257] | 100 | 100 | – | 3.76 | –
Cc1cc(Cl)cc(C(=O)NC(C)C2CC2)c1NC(=O)c1cc(Cn2ncc(C(F)(C(F)(F)F)C(F)(F)F)n2)nn1-c1ncccc1Cl (stereo not drawn) [Example 258] | 100 | 100 | 4.61 | – | –
Cc1cc(Cl)cc(C(=O)NC(C)C)c1NC(=O)c1cc(Cn2ncc(C(F)(C(F)(F)F)C(F)(F)F)n2)nn1-c1ncccc1Cl [Example 259] | 100 | 100 | – | 4.3 | –
Cc1cc(Cl)cc(C(=O)NC(C)(C)C)c1NC(=O)c1cc(Cn2ncc(C(F)(C(F)(F)F)C(F)(F)F)n2)nn1-c1ncccc1Cl [Example 260] | 100 | 100 | 4.64 | – | –
Cc1cc(Cl)cc(C(=O)NCC2CC2)c1NC(=O)c1cc(Cn2ncc(C(F)(C(F)(F)F)C(F)(F)F)n2)nn1-c1ncccc1Cl [Example 261] | 100 | 100 | 4.34 | – | –
Cc1cc(Cl)cc(C(=O)NC2CC2)c1NC(=O)c1cc(Cn2ncc(C(F)(C(F)(F)F)C(F)(F)F)n2)nn1-c1ncccc1Cl [Example 264] | 100 | 100 | – | 4.01 | –
Cc1cc(I)cc(C(=O)NC(C)C2CC2)c1NC(=O)c1cc(Cn2ncc(C(F)(C(F)(F)F)C(F)(F)F)n2)nn1-c1ncccc1Cl (stereo not drawn) [Example 266] | 100 | 100 | 4.86 | – | –
Cc1cc(I)cc(C(=O)NC(C)C)c1NC(=O)c1cc(Cn2ncc(C(F)(C(F)(F)F)C(F)(F)F)n2)nn1-c1ncccc1Cl [Example 267] | 100 | 100 | – | 4.51 | –
Cc1cc(I)cc(C(=O)NC(C)(C)C)c1NC(=O)c1cc(Cn2ncc(C(F)(C(F)(F)F)C(F)(F)F)n2)nn1-c1ncccc1Cl [Example 268] | 100 | 100 | 4.9 | – | –
Cc1cc(I)cc(C(=O)NCC2CC2)c1NC(=O)c1cc(Cn2ncc(C(F)(C(F)(F)F)C(F)(F)F)n2)nn1-c1ncccc1Cl [Example 269] | 100 | 100 | 4.58 | – | –
CSC[C@H](C)NC(=O)c1cc(I)cc(C)c1NC(=O)c1cc(Cn2ncc(C(F)(C(F)(F)F)C(F)(F)F)n2)nn1-c1ncccc1Cl [Example 270] | 100 | – | 4.73 | – | 100
Cc1cc(I)cc(C(=O)NC2CC2)c1NC(=O)c1cc(Cn2ncc(C(F)(C(F)(F)F)C(F)(F)F)n2)nn1-c1ncccc1Cl [Example 272] | 100 | – | – | 4.26 | 100
CC(NC(=O)c1cc(Cl)cc(Cl)c1NC(=O)c1cc(Cn2ncc(C(F)(C(F)(F)F)C(F)(F)F)n2)nn1-c1ncccc1Cl)C1CC1 (stereo not drawn) [Example 274] | 100 | – | 4.49 | – | 100
CC(C)NC(=O)c1cc(Cl)cc(Cl)c1NC(=O)c1cc(Cn2ncc(C(F)(C(F)(F)F)C(F)(F)F)n2)nn1-c1ncccc1Cl [Example 275] | 100 | 100 | – | 4.17 | –
CC(C)(C)NC(=O)c1cc(Cl)cc(Cl)c1NC(=O)c1cc(Cn2ncc(C(F)(C(F)(F)F)C(F)(F)F)n2)nn1-c1ncccc1Cl [Example 276] | 100 | 100 | 4.53 | – | –
